Consider 19 compounds from patent US9873709B2 (priority 2013, dated 2018).

pIC50, pKi: −log10 of the molar value. Where a name gives a salt, the structure may show the parent alone. Read-outs that look alike come from different tables or passages of the source. A value given as a limit tells only on which side of the number the result lay.

The target in experiment [1] is T1, isolated recombinant JAK2 kinase domain (Homo sapiens (Human), UniProt O60674). The experiment is described as follows: biochemical.
T1 sequence (O60674 849-1124): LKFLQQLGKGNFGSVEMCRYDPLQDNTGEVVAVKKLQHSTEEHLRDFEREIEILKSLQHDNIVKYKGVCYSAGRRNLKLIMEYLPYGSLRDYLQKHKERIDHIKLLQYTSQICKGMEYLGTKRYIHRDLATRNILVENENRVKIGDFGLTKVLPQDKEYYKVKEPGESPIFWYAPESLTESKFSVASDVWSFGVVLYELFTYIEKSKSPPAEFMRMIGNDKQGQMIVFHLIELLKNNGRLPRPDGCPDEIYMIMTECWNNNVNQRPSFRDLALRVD
Experiment [2] has as its system JAK1-dependent STAT6 phosphorylation downstream of IL-13 stimulation in TF-1 human erythroleukemia cells. The experiment is described as follows: cells. As to conditions: TF-1, read-out: IL-13-pSTAT6 IC50.
Experiment [3] has as its target T1, isolated recombinant JAK2 kinase domain. Particulars: read-out: JAK2 Ki; isolated recombinant JAK2 kinase domain, 25 μM ATP.
Experiment [4] relates to JAK1-dependent STAT6 phosphorylation downstream of IL-13 stimulation in BEAS-2B human bronchial epithelial cells. The experiment is described as follows: cells. As to conditions: read-out: IL13-pSTAT6 BEASB2B IC50.

On to `CC(=O)NC1CCN(c2cccn3nc(Nc4ccc(C(=O)N(C)C5CCN(C)CC5)cc4)nc23)CC1` [Example 1-9, 4-[[8-(4-acetamido-1-piperidyl)-[1,2,4]triazolo[1,5-a]pyridin-2-yl]amino]-N-methyl-N-(1-methyl-4-piperidyl)benzamide; hydrochloride], for which the pKi in experiment [1] is 7.20.

Regarding `CC(=O)N1CCN(c2cccn3nc(Nc4ccc(C(=O)N(C)C5CCN(C)CC5)cc4)nc23)CC1` [Example 1-10, 4-[[8-(4-acetylpiperazin-1-yl)-[1,2,4]triazolo[1,5-a]pyridin-2-yl]amino]-N-methyl-N-(1-methyl-4-piperidyl)benzamide], in experiment [2], the pIC50 is below 5.00. The pKi in experiment [1] is 7.13.

As to `CN1CCC(N(C)C(=O)c2ccc(Nc3nc4c(N5CCC(C#N)CC5)cccn4n3)cc2)CC1` [Example 1-11, 4-[[8-(4-cyano-1-piperidyl)-[1,2,4]triazolo[1,5-a]pyridin-2-yl]amino]-N-methyl-N-(1-methyl-4-piperidyl)benzamide], the pIC50 in experiment [2] is 6.63. For the same compound, the negative-log Ki (pKi) in experiment [1] was 8.20.

Turning to `CN1CCC(N(C)C(=O)c2ccc(Nc3nc4c(N5CCCCC5)cccn4n3)cc2)CC1` [Example 1-12, N-methyl-N-(1-methyl-4-piperidyl)-4-[[8-(1-piperidyl)-[1,2,4]triazolo[1,5-a]pyridin-2-yl]amino]benzamide; dihydrochloride], the negative-log IC50 (pIC50) in experiment [2] was 5.47. Besides, in experiment [1], the pKi is 7.11.

For the compound `CN1CCC(N(C)C(=O)c2ccc(Nc3nc4c(N5CCN(c6ccccc6)CC5)cccn4n3)cc2)CC1` [Example 1-13, N-methyl-N-(1-methyl-4-piperidyl)-4-[[8-(4-phenylpiperazin-1-yl)-[1,2,4]triazolo[1,5-a]pyridin-2-yl]amino]benzamide], the pIC50 in experiment [2] is 6.31. Moreover, the pKi in experiment [1] is 7.88.

In the case of `CN1CCC(N(C)C(=O)c2ccc(Nc3nc4c(N5CCC(O)(c6cccnc6)CC5)cccn4n3)cc2)CC1` [Example 1-19, 4-[[8-[4-hydroxy-4-(3-pyridyl)-1-piperidyl]-[1,2,4]triazolo[1,5-a]pyridin-2-yl]amino]-N-methyl-N-(1-methyl-4-piperidyl)benzamide], the pKi in experiment [1] was 7.50.

Take `CN1CCC(N(C)C(=O)c2ccc(Nc3nc4c(N5CCC(C(C)(C)O)CC5)cccn4n3)cc2)CC1` [Example 1-29, 4-[[8-[4-(1-hydroxy-1-methyl-ethyl)-1-piperidyl]-[1,2,4]triazolo[1,5-a]pyridin-2-yl]amino]-N-methyl-N-(1-methyl-4-piperidyl)benzamide]: the negative-log Ki (pKi) in experiment [1] is 7.32.

Regarding `CN1CCC(N(C)C(=O)c2ccc(Nc3nc4c(N5CCC(O)(c6ccc(F)cc6)CC5)cccn4n3)cc2)CC1` [Example 1-37, 4-[[8-[4-(4-fluorophenyl)-4-hydroxy-1-piperidyl]-[1,2,4]triazolo[1,5-a]pyridin-2-yl]amino]-N-methyl-N-(1-methyl-4-piperidyl)benzamide], the pIC50 in experiment [2] is 7.12. Further, in experiment [1], the pKi was 8.17.

Regarding `CC(C)c1ccc(C2(O)CCN(c3cccn4nc(Nc5ccc(C(=O)N(C)C6CCN(C)CC6)cc5)nc34)CC2)cc1` [Example 1-38, 4-[[8-[4-hydroxy-4-(4-isopropylphenyl)-1-piperidyl]-[1,2,4]triazolo[1,5-a]pyridin-2-yl]amino]-N-methyl-N-(1-methyl-4-piperidyl)benzamide], the negative-log IC50 (pIC50) in experiment [2] is 6.82. Further, the negative-log Ki (pKi) in experiment [1] is 8.25.

For the compound `CN1CCC(N(C)C(=O)c2ccc(Nc3nc4c(N5CCC(CC#N)(c6ccccc6)CC5)cccn4n3)cc2)CC1` [Example 1-41, 4-[[8-[4-(cyanomethyl)-4-phenyl-1-piperidyl]-[1,2,4]triazolo[1,5-a]pyridin-2-yl]amino]-N-methyl-N-(1-methyl-4-piperidyl)benzamide], the pKi in experiment [3] was 9.70. In addition, the pIC50 in experiment [2] is 7.80; in experiment [4], 7.38.

Regarding `O=C(c1ccc(Nc2nc3c(N4CCC(O)(c5ccc(Cl)cc5)CC4)cccn3n2)cc1)N1CCC(N2CCOCC2)CC1` [Example 1-125, [4-[[8-[4-(4-chlorophenyl)-4-hydroxy-1-piperidyl]-[1,2,4]triazolo[1,5-a]pyridin-2-yl]amino]phenyl]-(4-morpholino-1-piperidyl)methanone], the negative-log Ki (pKi) in experiment [3] was 9.20. Further, the pIC50 in experiment [2] was 7.79; in experiment [4], 7.37.

As to `NCCNC(=O)c1ccc(Nc2nc3c(N4CCC(O)(c5ccc(Cl)cc5)CC4)cccn3n2)cc1` [Example 1-175, N-(2-aminoethyl)-4-[[8-[4-(4-chlorophenyl)-4-hydroxy-1-piperidyl]-[1,2,4]triazolo[1,5-a]pyridin-2-yl]amino]benzamide], the negative-log IC50 (pIC50) in experiment [2] was 6.72. The pKi in experiment [1] was 9.04.

With `O=C(c1ccc(Nc2nc3c(N4CCC(O)(c5ccc(Cl)cc5)CC4)cccn3n2)cc1)N1CCNCC1` [Example 1-177, [4-[[8-[4-(4-chlorophenyl)-4-hydroxy-1-piperidyl]-[1,2,4]triazolo[1,5-a]pyridin-2-yl]amino]phenyl]-piperazin-1-yl-methanone], in experiment [2], the pIC50 was 7.63. In addition, the pKi in experiment [1] was 8.82.

For `CN1CCC(N(C)C(=O)c2ccc(Nc3nc4c(N5CCC(CCC#N)(c6ccc(Cl)cc6)CC5)cccn4n3)cc2)CC1` [Example 1-247, 4-{8-[4-(4-Chloro-phenyl)-4-(2-cyano-ethyl)-piperidin-1-yl]-1,8a-dihydro[1,2,4]triazolo[1,5-a]pyridine-2-ylamino}-N-methyl-N-(1-methyl-piperidin-4-yl)-benzamide], the negative-log Ki (pKi) in experiment [3] was 9.48. Further, the pIC50 in experiment [2] was 7.74; in experiment [4], 6.94.

As for `CCOC(=O)CC1(c2ccc(Cl)cc2)CCN(c2cccn3nc(Nc4ccc(C(=O)N(C)C5CCN(C)CC5)cc4)nc23)CC1` [Example 1-254], in experiment [3], the pKi is 9.41. Further, the results for the negative-log IC50 (pIC50) in experiment [2] and in experiment [4] were 7.05 and 6.18, respectively.

Take `CN1CCC(N(C)C(=O)c2ccc(Nc3nc4c(N5CCC(CC(F)F)(c6ccc(Cl)cc6)CC5)cccn4n3)cc2)CC1` [Example 1-256, 4-([8-[4-(4-chlorophenyl)-4-(2,2-difluoroethyl)piperidin-1-yl]-[1,2,4]triazolo[1,5-a]pyridin-2-yl]amino)-N-methyl-N-(1-methylpiperidin-4-yl)benzamide]: the pKi in experiment [3] was 9.16. The pIC50 in experiment [2] is 7.25; in experiment [4] it was 6.37.

With `CN1CCCC12CN(C(=O)c1ccc(Nc3nc4c(N5CCC(CO)(c6ccc(Cl)cc6)CC5)cccn4n3)cc1)C2` [Example 1-274, [4-[[8-[4-(4-chlorophenyl)-4-(hydroxymethyl)-1-piperidyl]-[1,2,4]triazolo[1,5-a]pyridin-2-yl]amino]phenyl]-(5-methyl-2,5-diazaspiro[3.4]octan-2-yl)methanone], the pKi in experiment [3] was 9.77. Also, the values for the pIC50 in experiment [2] and in experiment [4] were 8.10 and 7.54, respectively.

`COC(=O)CCN1CCN(C(=O)Cn2cc(Nc3nc4c(N5CCC(CO)(c6ccc(Cl)cc6)CC5)cccn4n3)cn2)CC1` [Example 1-290, Methyl 3-(4-[2-[4-([8-[4-(4-chlorophenyl)-4-(hydroxymethyl)piperidin-1-yl]-[1,2,4]triazolo[1,5-a]pyridin-2-yl]amino)-1H-pyrazol-1-yl]acetyl]piperazin-1-yl)propanoate]: in experiment [3], the pKi was 9.52. In addition, in experiment [4], the negative logarithm of the IC50 (pIC50) is 8.23.

Regarding `CN1CCC(N(C)C(=O)c2ccc(Nc3nc4c(N5C[C@@H]6C[C@](O)(c7ccccc7)C[C@@H]6C5)cccn4n3)cc2)CC1` [Example 1-292], in experiment [1], the negative logarithm of the Ki (pKi) was 7.73.

What is called pKi is the negative decadic logarithm of the Ki, by convention in mol/L. What is called pIC50 is the negative decadic logarithm of the IC50, by convention in mol/L.
